Assay results: US7049396B2, “Synthetic peptides that inhibit leukocyte superoxide anion production and/or attract leukocytes” (priority 1995, dated 2006)
pIC50: −log10 of the molar value. Converted amounts (≈) assume the structure as drawn. Where a SMILES comes first, the peptide text is derived from it.

Key:
Escherichia coli, 25922 = experiment: MIC/MBC microdilution broth method; format: cell-based; conditions: Escherichia coli
Experimental: (§1) Plates were incubated at 37° C. for 18 hr. […] Viable bacteria were counted. Tests were repeated on three different days. […] The results were expressed as the mean ± standard deviation. […] S. choleraesuis, ATCC 6962 was used in this experiment. […] Slides were stained with LeukoStat solutions (Fisher, Pittsburgh, Pa.). […] At least 200 neutrophils were examined. […] Tests were repeated on three different days. Results were expressed as the mean±standard deviation.

Salmonella typhimurium = experiment: MIC/MBC microdilution broth method; format: cell-based; conditions: Salmonella typhimurium
Experimental: as §1

Staphylococcus aureus = experiment: MIC/MBC microdilution broth method; format: cell-based; conditions: Staphylococcus aureus
Experimental: as §1

Streptococcus suis = experiment: MIC/MBC microdilution broth method; format: cell-based; conditions: Streptococcus suis
Experimental: as §1

S. typhimurium = experiment: Postantibiotic effect (PAE); format: cell-based, Salmonella typhimurium; conditions: 2 hr exposure
Experimental: as §1

[1] = test system: S. choleraesuis, ATCC 6962; experiment: Bacterial susceptibility to neutrophil phagocytosis; format: cell-based, Salmonella choleraesuis; conditions: bacteria treated at 8 MICs
Experimental: as §1

porcine neutrophils = experiment: Neutrophil chemotaxis, modified Boyden chamber; format: cell-based; conditions: peptide at 0.05 μM, 30 min
Experimental: Influence of PR-39 on neutrophil chemotaxis. Chemotaxis of porcine neutrophils was measured by the procedure of Salak et al. (1993). Briefly, PR-14, PR15, PR-16, PR-26, or PR-39 (30 μl in Dulbecco's Modified Eagle's medium) were placed in the bottom chamber of a modified Boyden chamber (Neuro Probe, Cabin John, Md.) and porcine neutrophils (50 μl at 5×10^6 cells/ml) were placed in the top chamber. The chambers were incubated at 37° C. for 30 min. Cells that migrated through the porous membrane (pore size 5 μm) were stained using LeukoStat solution and enumerated. Five microscope fields were counted and the cells that migrated through the membrane were standardized to the medium control and referred to as the migration index.

[2] = test system: whole-cell NADPH oxidase activity of porcine peripheral blood neutrophils; experiment: Whole-cell O2- production, ferricytochrome c reduction; format: cell-based
Experimental: Regulation of neutrophil O2^− production by PR-26 and PR-39. • (i) O2^− production assays. Whole-cell O2^− production by por-cine peripheral blood neutrophils was determined by the superoxide dismutase-inhibitable reduction of ferricytochrome c as previously described (Shi et al., 1994a). Cell-free O2^− production was measured as previously described (Leto et al., 1991) using 96-well plates and a Molecular Devices Thermomax microplate reader (Menlo Park, Calif.). Reactions (100 μl) contained 10^6 cell equivalents of human neutrophil cytosol and 5×10^5 cell equivalents of deoxycholate-solubilized membranes prepared from human peripheral blood neutrophils. Reaction mixtures contained 50 mM potassium phosphate (pH 7), 0.2 mM acetylated cytochrome c, 4 mM MgCl2, 1 mM EGTA, 10 μM FAD, 1 μM GTP-γS, and 200 μM NADPH. The reactions were initiated by addition of 40 μM arachidonic acid. Control reactions contained 5 μg of superoxide dismutase. Superoxide anion generation was calculated based on superoxide dismutase-inhibitable changes in cytochrome c absorbance observed at 551 nm. The reactions were followed for 20 min. after addition of arachidonic acid, with absorbance readings taken at 1-min. intervals. Maximum rates of superoxide generation were calculated from a linear least squares fit of 10 consecutive 1-min. data points. Determinations were based on reactions performed in duplicate. • (ii) Binding assays. Neutrophils were disrupted by sonication, and unbroken cells, debris, and granules were removed by centrifuigation (13,000×g for 60 min.). Cytosol fractions were prepared by centrifugation (100,000 g for 45 min.) of the supernatants to remove residual membranes. Cytosolic proteins (15 μg in reducing buffer) were separated on a 7.5% SDS PAGE gel, transferred to PVDF membranes, and probed with biotinylated PR-39 (0.3 μM) for 2 hr. Binding between PR-39 and cytosolic proteins were visualized by a chemiluminescent streptavidin alkaline phosphatase system using an Epson scanner (Torrance, Calif.) and the NIH Image program. PR-39 was labeled with biotin hydrazide at the carboxy-terminus (Pierce Chemical Co., Rockford, Ill.) and purified by gel filtration chromatography.

[3] = target: T1, cell-free NADPH oxidase (human neutrophil cytosol and membranes) (Homo sapiens, UniProt P14598); experiment: Cell-free O2- production assay; format: biochemical
T1 construct: 10^6 cell equivalents of human neutrophil cytosol; from tissue; host or cells: human peripheral blood neutrophils (cytosol and deoxycholate-solubilized membranes)
T1 sequence (P14598 1-390): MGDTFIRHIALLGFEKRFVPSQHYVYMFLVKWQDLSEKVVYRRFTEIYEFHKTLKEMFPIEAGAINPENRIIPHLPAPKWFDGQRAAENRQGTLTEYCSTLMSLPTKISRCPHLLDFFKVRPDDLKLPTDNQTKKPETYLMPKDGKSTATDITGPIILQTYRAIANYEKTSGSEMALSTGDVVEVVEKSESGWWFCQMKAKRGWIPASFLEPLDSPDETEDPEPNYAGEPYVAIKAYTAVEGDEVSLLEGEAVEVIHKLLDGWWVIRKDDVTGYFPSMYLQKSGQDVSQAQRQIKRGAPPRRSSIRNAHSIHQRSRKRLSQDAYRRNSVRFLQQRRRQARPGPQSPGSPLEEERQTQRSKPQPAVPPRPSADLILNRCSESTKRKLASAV
Experimental: Reactions (100 μl) contained 10^6 cell equivalents of human neutrophil cytosol and 5×10^5 cell equivalents of deoxycholate-solubilized membranes prepared from human peripheral blood neutrophils. […] Control reactions contained 5 μg of superoxide dismutase. Superoxide anion generation was calculated based on superoxide dismutase-inhibitable changes in cytochrome c absorbance observed at 551 nm. The reactions were followed for 20 min. after addition of arachidonic acid, with absorbance readings taken at 1-min. intervals. […] Determinations were based on reactions performed in duplicate. • (ii) Binding assays. Neutrophils were disrupted by sonication, and unbroken cells, debris, and granules were removed by centrifuigation (13,000×g for 60 min.). Cytosol fractions were prepared by centrifugation (100,000 g for 45 min.) of the supernatants to remove residual membranes. Cytosolic proteins (15 μg in reducing buffer) were separated on a 7.5% SDS PAGE gel, transferred to PVDF membranes, and probed with biotinylated PR-39 (0.3 μM) for 2 hr. Binding between PR-39 and cytosolic proteins were visualized by a chemiluminescent streptavidin alkaline phosphatase system using an Epson scanner (Torrance, Calif.) and the NIH Image program. PR-39 was labeled with biotin hydrazide at the carboxy-terminus (Pierce Chemical Co., Rockford, Ill.) and purified by gel filtration chromatography.

**Q.** Which MBC (Escherichia coli, 25922) does the source give for `CC[C@H](C)[C@H](NC(=O)[C@H](CCCNC(=N)N)NC(=O)[C@@H]1CCCN1C(=O)[C@@H]1CCCN1C(=O)[C@H](CC(C)C)NC(=O)[C@H](CCCNC(=N)N)NC(=O)[C@@H]1CCCN1C(=O)[C@@H]1CCCN1C(=O)[C@H](Cc1ccccc1)NC(=O)[C@H](Cc1ccccc1)NC(=O)[C@@H]1CCCN1C(=O)[C@@H]1CCCN1C(=O)[C@@H]1CCCN1C(=O)[C@H](CCCNC(=N)N)NC(=O)[C@@H]1CCCN1C(=O)[C@H](CCCNC(=N)N)NC(=O)[C@@H]1CCCN1C(=O)[C@H](CC(C)C)NC(=O)[C@H](Cc1ccc(O)cc1)NC(=O)[C@@H]1CCCN1C(=O)[C@@H]1CCCN1C(=O)[C@H](CCCNC(=N)N)NC(=O)[C@@H]1CCCN1C(=O)[C@H](CCCNC(=N)N)NC(=O)[C@H](CCCNC(=N)N)NC(=O)[C@@H](N)CCCNC(=N)N)C(=O)N1CCC[C@H]1C(=O)N1CCC[C@H]1C(=O)NCC(=O)N[C@@H](Cc1ccccc1)C(=O)N1CCC[C@H]1C(=O)N1CCC[C@H]1C(=O)N[C@@H](CCCNC(=N)N)C(=O)N[C@@H](Cc1ccccc1)C(=O)N1CCC[C@H]1C(=O)N1CCC[C@H]1C(=O)N[C@@H](CCCNC(=N)N)C(=O)N[C@@H](Cc1ccccc1)C(=O)N1CCC[C@H]1C(=O)O` [PR-39] (H-RRRPRPPYLPRPRPPPFFPPRLPPRIPPGFPPRFPPRFP-OH; N-terminus and C-terminus assumed) here?
**A.** 8 µM (≈ 37.8 µg/mL)

**Q.** And the MIC (Escherichia coli, 25922)?
**A.** 4 µM (≈ 18.9 µg/mL)

**Q.** What about the MBC (Salmonella typhimurium) of the same compound?
**A.** 4 µM (≈ 18.9 µg/mL)

**Q.** And the MIC (Salmonella typhimurium)?
**A.** 4 µM (≈ 18.9 µg/mL)

**Q.** What about the MIC (Staphylococcus aureus) of the same compound?
**A.** >250 µM

**Q.** And the MBC (Streptococcus suis)?
**A.** >64 µM

**Q.** And the MIC (Streptococcus suis)?
**A.** >64 µM

**Q.** And the “PAE (growth delay)” value (S. typhimurium; 0.1 MIC)?
**A.** slight growth delay

**Q.** What about the PAE (S. typhimurium; 1 MIC) of the same compound?
**A.** significantly increased

**Q.** What about the PAE (S. typhimurium; 8 MICs) of the same compound?
**A.** significantly increased

**Q.** What about the “phagocytic index of porcine neutrophils” value [1] of the same compound?
**A.** did not increase

**Q.** What about the “neutrophil chemotaxis (migration index)” value (porcine neutrophils) of the same compound?
**A.** chemotactic agents

**Q.** And the “O2- generation by neutrophils” value ([2]; 5 μM, incubated at least 45 min. before PMA stimulation)?
**A.** significant reduction

**Q.** What about the oxidase inhibition ([2]; 5 μM, longer pre-incubation periods before PMA) of the same compound?
**A.** ~70%

**Q.** And the “O2- generation by neutrophils” value ([2]; 20 μM added at the same time as PMA)?
**A.** did not affect

**Q.** What about the pIC50 [3] of the same compound?
**A.** ~5.70

**Q.** What about the “inhibition of O2- generation” value ([3]; cell-free assay, concentrations greater than 5 μM) of the same compound?
**A.** completely inhibited
